From patent publication US7285701B2, “Cyanobacterial nucleic acid fragments encoding proteins useful for controlling plant traits via nuclear or plastome transformation” (BASF Plant Science GmbH, priority 2001, dated 2007)

Columns and labels:
Wild type (W-38) tobacco = experiment: PURSUIT imazethapyr spray test, wild type tobacco; type: in vivo; conditions: 18 g/ha, 5 weeks after the test
Method: (§1) Observations and photos (FIG. 8) of the PURSUIT® imazethapyr spray test were taken 5 weeks after the test was conducted. […] Leaves assumed a thin, spiny form.

Anabaena AHAS = experiment: In vitro AHAS assay; type: biochemical, Anabaena PCC7120; conditions: 100 μM
Method: (§2) AHAS is the target site of both PURSUIT® imazethapyr and OUST® sulfometuron methyl herbicides. To determine if resistance to the herbicides is due to a natural resistance to inhibition of the acetohydroxyacid synthase enzymes from the cyanobacteria, or if it is due to alternative mechanisms (e.g. lack of entry into the cell), the in vitro activity of the AHAS enzyme in the presence of the herbicides was tested.
(§3) AHAS assays were performed with slight modification as described by Singh et. al (Singh B K, Stidham M A, Shaner D L, 1988, Assay for acetohydroxyacid synthase from plants. Anal Biochem 171: 173-179).
(§4) Synechocystis PCC6803 and Anabaena PCC7120 were cultured in 1.5 L of BG-11 media. Cells were collected by centrifuge and stored frozen at −80° C. Frozen cells were thawed and placed in a 30 mL Bead Beater cell disruptor chamber (BioSpec Corp Bartlesville, Okla.). Seven mL of acid washed sand was added. The chamber was filled with 2× ASHA assay buffer, consisting of 100 mM HEPES pH7.0, 200 mM pyruvate, 20 mM MgCl2, 2 mM TPP (Thiamine pyrophosphate) and 100 μM FAD (flavin adenine dinucleotide).
(§5) The Bead Beater cell disruptor was packed in ice and turned on for 10 seconds, followed by cooling for 3 minutes. This cycle was repeated five times. The extract was transferred into a centrifuge tube, and spun in a Beckman SA20 (Beckman, Fullerton, Calif.) rotor for 15 minutes at 17,000 rpms. […]

[1] = test system: AHAS enzyme of pACBC222 line G-981208-1.1; experiment: AHAS enzyme assay of transplastomic tobacco line; type: biochemical; conditions: line sprayed with 18 g/ha PURSUIT imazethapyr; assay in the presence of the herbicide
[2] = test system: E. coli M1262 expressing the cyanobacterial ahas gene; experiment: Growth on minimal media of E. coli M1262 expressing the cyanobacterial ahas gene; type: cell-based
Excerpt: To confirm that these plasmids carry functional AHAS sequences, plasmid DNA from each of the ten rescued colonies was transformed into the E. coli strain M1262. (leuB6, ilv1614, ilvH612, λ^−, relA1, spoT1, ilvB619, ilvG603, ilfG605(am), thi-1) (Genetics Stock Center, Yale University). This strain of E. coli is lacking in AHAS. […] The ahas gene can therefore be used for achieving herbicide tolerance in crops by transformation into the nuclear or plastidic genome.

p116 line G-981208-1.1 = experiment: PURSUIT imazethapyr spray test, p116 line; type: in vivo, tobacco
Method: as §1

Arabidopsis plants = experiment: Lethality to Arabidopsis plants in agar media; type: in vivo
Method: (§6) In vivo testing of Synechocystis PCC6803 and Anabaena PCC7120 was done by culturing the organisms in varying concentrations of the commercial herbicides. […] For relative comparison purposes a concentration of 1 μM PURSUIT® imazethapyr in agar media is lethal to Arabidopsis plants.

[3] = test system: p111 and p112 transplastomic tobacco lines; experiment: PURSUIT imazethapyr spray test, p111 and p112 lines; type: in vivo; conditions: 18 g/ha, 5 weeks after the test
Method: as §1

Synechocystis AHAS = experiment: In vitro AHAS assay; type: biochemical, Synechocystis PCC6803; conditions: 100 μM
Method: as §2, §3, §4, §5

Anabaena PCC7120 = experiment: In vivo growth in BG-11 media with commercial herbicides; type: cell-based; conditions: 100 μM, one week of culture in BG-11 media
Method: (§7) In vivo resistance of cyanobacteria to PURSUIT® imazethapyr and OUST® sulfometuron methyl. As a preliminary matter, Synechocystis PCC6803 and Anabaenia PCC7120 were tested for susceptibility to PURSUIT® imazethapyr and OUST® sulfometuron methyl. AHAS genes which are resistant to these herbicides are excellent candidates for transformation in plant plastomes and nuclear genomes. Such transformants can be used in a weed control strategy using a combination of transgenic herbicide resistant crops and herbicides.
as §6

Synechocystis PCC6803 = experiment: as above; type: cell-based; conditions: 100 μM, one week of culture in BG-11 media
Method: as §7, §6

## CCc1cnc(C2=NC(C)(C(C)C)C(=O)N2)c(C(=O)O)c1 (stereo not shown) [PURSUIT® imazethapyr, imazethapyr]
Wild type (W-38) tobacco
  spray test observation: wide-spread leaf necrosis and stunting of growth
Anabaena AHAS
  inhibition of AHAS enzyme: No significant inhibition
[1]
  increase in AHAS enzyme resistance compared with AHAS enzyme from unsprayed wild type tobacco: ~20%
[2]
  growth on minimal media in the presence of the herbicide: capable of growing
p116 line G-981208-1.1; 18 g/ha, 5 weeks after the test
  growth: uninhibited
p116 line G-981208-1.1; 18 or 35 g/ha, 5 weeks after the test
  leaf damage: no visible leaf damage
p116 line G-981208-1.1; 35 g/ha, 5 weeks after the test
  growth: slight stunting
p116 line G-981208-1.1; p116 line, prolific shooting and morphological abnormalities in new shoots
  effect on new shoots and morphology: strong growth regulator
Arabidopsis plants
  concentration lethal to Arabidopsis plants: 1 µM
[3]
  spray test observation: wide-spread leaf necrosis and stunting of growth
Synechocystis AHAS
  inhibition of AHAS enzyme: No significant inhibition
Anabaena PCC7120
  inhibition of growth: No inhibition of growth
Synechocystis PCC6803
  inhibition of growth: No inhibition of growth
